Common to all, as to format: physicochemical
The nature of series [1]: Apparent pKa of LNP formulations, TNS fluorescence assay. As to conditions: LNP cationic lipid/DSPC/cholesterol/DMG-PEG 50/10/38.5/1.5 mol %. Summed up:
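LNPs (cationic lipid/DSPC/cholesterol/DMG-PEG 50/10/38.5/1.5 mol %) diluted to 0.1 mg/mL total lipid in citrate/phosphate/borate/NaCl buffers spanning pH 3–9 with TNS. Fluorescence (ex 325, em 435 nm) read at room temperature; pKa taken as the pH at half-maximal intensity from sigmoidal fit.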

The nature of series [2]: Encapsulation efficiency of lipid nanoparticles, Quant-it Ribogreen RNA assay. As to conditions: LNP of lipid/DSPC/cholesterol/PEG-lipid 50:10:38.5:1.5 encapsulating hEPO mRNA. Summed up:
(§1)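 LNPs made from ionizable lipid/DSPC/cholesterol/PEG-lipid (50:10:38.5:1.5) and mRNA in citrate pH 4 by microfluidic mixing, lipid:mRNA about 10:1–30:1 w/w, then dialysed into DPBS and filtered. Size and PDI measured by DLS in backscatter mode; encapsulation efficiency measured by RiboGreen assay.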

A short description of series [3]: Lipid nanoparticle size and polydispersity by dynamic light scattering. As to conditions: LNP of lipid/DSPC/cholesterol/PEG-lipid 50:10:38.5:1.5 encapsulating hEPO mRNA. Summed up:
as §1

Molecules are shown by their SMILES.

Regarding `CCCCCCCCCCCCCCCCCCOC(=O)CCCCCN(CCN(CCO)CCCCCC(=O)OCC(CCCCCCCC)CCCCCCCC)C1CCCCC1` [Compound 105], in series [1], the “Apparent Pka” value was 6.328. The “Encapsulation Efficiency” value in series [2] is 93.35%. For the same compound, in series [3], the polydispersity is on record as 0.051 and the “size (nm)” value stood at 69.11 nm.
The matching figures for `CCCCCCCCCCCOC(=O)CCCCCN(CCN(CCO)CCCCCC(=O)OCC(CCCCCCCCCC)CCCCCCCCCC)C1CCCCC1` [Compound 47]: 6.298, 91.0%, 0.037 and 66.29 nm.
For `CCCCCCCCCCCC(=O)OCCCCCN(CCN(CCO)CCOCCOC(=O)CC(CCCCCCCC)CCCCCCCC)C1CCC1` [Compound 97], the “Apparent Pka” value in series [1] is given as 6.912. The “Encapsulation Efficiency” value in series [2] is 88.12%. In series [3], the polydispersity was determined as 0.045 and the “size (nm)” value came out at 76.13 nm.
For the compound `CCCCCCCCC(CCCCCCCC)CC(=O)NCCCCCN(CCN(CCO)CCCCCOC(=O)CC(CCCCCCCC)CCCCCCCC)C1CCCC1` [Compound 72], in series [1], the “Apparent Pka” value was 6.633. Further, the “Encapsulation Efficiency” value in series [2] stood at 92.60%. In series [3], the polydispersity turned out to be 0.033 and the “size (nm)” value was 74.18 nm.
Regarding `CCCCCCCCC(CCCCCCCC)COC(=O)CCCCCN(CCO)CCN(CCCCCC(=O)OCC(CCCCCCCC)CCCCCCCC)CC1CCCC1` [Compound 35], in series [1], the “Apparent Pka” value is 5.843. Further, the “Encapsulation Efficiency” value in series [2] turned out to be 90.0%. For the same compound, in series [3], the polydispersity is on record as 0.089 and the “size (nm)” value worked out at 54.18 nm.
As for `CCCCCCCCC(CCCCCCCC)COC(=O)CCCCCN(CC=C(C)C)CCN(CCCCCC(=O)OCC(CCCCCCCC)CCCCCCCC)C1CCC(O)CC1` (stereo not shown) [Compound 126], in series [1], the “Apparent Pka” value is reported as 6.212. For the same compound, the “Encapsulation Efficiency” value in series [2] is 92.26%. In series [3], the polydispersity turned out to be 0.047 and the “size (nm)” value is reported as 61.57 nm.
For the compound `CCCCCCCCC(CCCCCC)COC(=O)CCCCCN(CC)CCN(CCO)CCCCC(COC(=O)CCCCCCC)COC(=O)CCCCCCC` (stereo not shown) [Compound 157], the “Apparent Pka” value in series [1] is given as 6.674. The “Encapsulation Efficiency” value in series [2] is listed as 95.04%. In addition, in series [3], the polydispersity was 0.112 and the “size (nm)” value is 88.09 nm.
Turning to `CCCCCCCCCCCOC(=O)CCCCCN(CCN(CCO)CCCCCC(=O)OCC(CCCCCCCC)CCCCCCCC)C1CCCCCC1` [Compound 107], the “Apparent Pka” value in series [1] amounted to 6.411. Moreover, the “Encapsulation Efficiency” value in series [2] came to 93.22%. Besides, in series [3], the polydispersity stood at 0.121 and the “size (nm)” value is given as 55.62 nm.
As for `CCCCCCCCC(CCCCCCCC)CNC(=O)CCCCCN(CCO)CCN(CCCCCC(=O)NCC(CCCCCCCC)CCCCCCCC)C1CCCC1` [Compound 12], the “Apparent Pka” value in series [1] came to 6.685. Also, the “Encapsulation Efficiency” value in series [2] is 89.5%. Also, in series [3], the polydispersity stood at 0.062 and the “size (nm)” value worked out at 58.17 nm.
Taken in the same sequence, the figures for `CCCCCCCCC(CCCCCCCC)COC(=O)CCOCCN(CCO)CCN(CCOCCC(=O)OCC(CCCCCCCC)CCCCCCCC)C1CCC1` [Compound 112] were 6.343, 93.15%, 0.059 and 77.33 nm.
On to `CCCCCCCCCCCOC(=O)CCCCCN(CCN(CCO)CCCCC(COC(=O)CCCCCCC)COC(=O)CCCCCCC)C1CCC1` [Compound 182], for which, in series [1], the “Apparent Pka” value stood at 6.862. In series [2], the “Encapsulation Efficiency” value worked out at 91.00%. Also, in series [3], the polydispersity is given as 0.09 and the “size (nm)” value is 99.97 nm.
The matching figures for `CCCCCCCCC(CCCCCCCC)COC(=O)CCCCCN(CCO)CCN(CCCCCC(=O)OCC(CCCCCCCC)CCCCCCCC)C1CCC(C)CC1` (stereo not shown) [Compound 40]: 5.838, 87.1%, 0.03 and 52.06 nm.
For `CCCCCCCCC(CCCCCC)COC(=O)CCCCCN(CCO)CCN(CCCCC(COC(=O)CCCCCCC)COC(=O)CCCCCCC)C1CCCCCC1` (stereo not shown) [Compound 142], the “Apparent Pka” value in series [1] was found to be 6.218. Further, the “Encapsulation Efficiency” value in series [2] is on record as 87.29%. Further, in series [3], the polydispersity amounted to 0.055 and the “size (nm)” value is 71.85 nm.
As for `CCCCCCCCC(CCCCCCCC)COC(=O)CCCCCN(CCO)CCN(CCCCCC(=O)OCC(CCCCCCCC)CCCCCCCC)C1CC(OC)C1` (stereo not shown) [Compound 67], in series [1], the “Apparent Pka” value is 5.980. Also, the “Encapsulation Efficiency” value in series [2] amounted to 95.1%. Besides, in series [3], the polydispersity was 0.023 and the “size (nm)” value was 75.57 nm.
Take `CCCCCCCCC(CCCCCCCC)COC(=O)CCCCCN(CCO)CCN(CCCCCOC(=O)N(CCCCCCCC)CCCCCCCC)C1CCCCC1` [Compound 127]: the “Apparent Pka” value in series [1] came out at 6.226. For the same compound, the “Encapsulation Efficiency” value in series [2] was found to be 91.77%. Also, in series [3], the polydispersity turned out to be 0.090 and the “size (nm)” value turned out to be 69.05 nm.
As for `CCCCC/C=C\CCCOC(=O)CCCCCN(CCN(CCO)CCCCCC(=O)OCC(CCCCCCCC)CCCCCCCC)C1CCCCC1` [Compound 19], the “Apparent Pka” value in series [1] came out at 6.269. Moreover, in series [2], the “Encapsulation Efficiency” value is recorded as 90.2%. Further, in series [3], the polydispersity came to 0.046 and the “size (nm)” value was 80.6 nm.
The matching figures for `CCCCCCCCCCCC(=O)OCC(CCCCN(CCO)CCN(CCCCC(COC(=O)CCCCCCCCCCC)COC(=O)CCCCCCCCCCC)C1CCC1)COC(=O)CCCCCCCCCCC` [Compound 169]: 6.447, 89.88%, 0.153 and 73.05 nm.
As for `CCCCCCCCC(CCCCCC)CNC(=O)CCCCCCN(CCO)CCN(CCCCC(COC(=O)CCCCCCC)COC(=O)CCCCCCC)C1CCCCCC1` (stereo not shown) [Compound 232], in series [1], the “Apparent Pka” value is 6.567. The “Encapsulation Efficiency” value in series [2] is given as 92.47%. Moreover, in series [3], the polydispersity worked out at 0.031 and the “size (nm)” value is given as 77.78 nm.
The matching figures for `CCCCCCCCCCCOC(=O)CCCCCN(CCN(CCO)CCCCCC(=O)OCC(CCCCCCCC)CCCCCCCC)C1CCC(F)(F)CC1` [Compound 49]: 6.153, 95.5%, 0.1 and 55.04 nm.
`CCCCCCCCC(CCCCCCCC)CC(=O)OCCCCCN(CCO)CCN(CCCCCOC(=O)CC(CCCCCCCC)CCCCCCCC)C1CCC1` [Compound 62]: the “Apparent Pka” value in series [1] was found to be 6.21. Also, in series [2], the “Encapsulation Efficiency” value turned out to be 92.0%. In series [3], the polydispersity is on record as 0.034 and the “size (nm)” value amounted to 68.28 nm.
Take `CCCCCCCCC(CCCCCCCC)COC(=O)CCCCCN(CCCCCN(CCO)CCCCC(COC(=O)CCCCCCC)COC(=O)CCCCCCC)C1CCC1` [Compound 187]: the “Apparent Pka” value in series [1] is recorded as 6.226. For the same compound, in series [2], the “Encapsulation Efficiency” value is reported as 94.26%. In series [3], the polydispersity is recorded as 0.083 and the “size (nm)” value was determined as 88.82 nm.
With `CCCCCCCCC(CCCCCC)CNC(=O)CCCCCN(CCCCCO)CCN(CCCCC(COC(=O)CCCCCCC)COC(=O)CCCCCCC)C1CCCCCC1` (stereo not shown) [Compound 225], the “Apparent Pka” value in series [1] stood at 6.668. Moreover, the “Encapsulation Efficiency” value in series [2] was 92.20%. Besides, in series [3], the polydispersity was 0.033 and the “size (nm)” value is listed as 76.81 nm.
In the case of `CCCCCCCCC(CCCCCCCC)COC(=O)CCCCCN(CCN(CCCCCC(=O)OCC(CCCCCCCC)CCCCCCCC)C1CCC(O)CC1)C1CCC1` (stereo not shown) [Compound 55], the “Apparent Pka” value in series [1] is listed as 5.951. Besides, in series [2], the “Encapsulation Efficiency” value was 95.6%. Moreover, in series [3], the polydispersity was found to be 0.071 and the “size (nm)” value is on record as 83.97 nm.
As for `CCCCCCCCC(CCCCCCCC)COC(=O)CCCCCN(CCCCCC)CCN(CCCCCC(=O)OCC(CCCCCCCC)CCCCCCCC)C1CCC(O)CC1` (stereo not shown) [Compound 53], in series [1], the “Apparent Pka” value is on record as 5.872. The “Encapsulation Efficiency” value in series [2] was 95.7%. Moreover, in series [3], the polydispersity turned out to be 0.062 and the “size (nm)” value is 63.7 nm.
For the compound `CCCCCCCCC(CCCCCC)CNC(=O)CCCCCN(CCOCCO)CCN(CCCCC(COC(=O)CCCCCCC)COC(=O)CCCCCCC)C1CCCCCCC1` (stereo not shown) [Compound 208], the “Apparent Pka” value in series [1] amounted to 6.691. For the same compound, in series [2], the “Encapsulation Efficiency” value came out at 86.63%. Further, in series [3], the polydispersity came out at 0.053 and the “size (nm)” value was 85.95 nm.
Consider `CCCCCCCCC(CCCCCCCC)COC(=O)/C=C/CN(CCO)CCN(CCCCCC(=O)OCC(CCCCCCCC)CCCCCCCC)C1CCC1` [Compound 63], for which the “Apparent Pka” value in series [1] was determined as 6.147. Further, the “Encapsulation Efficiency” value in series [2] amounted to 93.93%. Also, in series [3], the polydispersity was found to be 0.044 and the “size (nm)” value came to 87.84 nm.
For the compound `CCCCCCCCC(CCCCCC)CNC(=O)CCCCCCCN(CCO)CCN(CCCCC(COC(=O)CCCCCCC)COC(=O)CCCCCCC)C1CCCC1` (stereo not shown) [Compound 234], in series [1], the “Apparent Pka” value was found to be 6.566. Moreover, the “Encapsulation Efficiency” value in series [2] came to 88.68%. Besides, in series [3], the polydispersity is recorded as 0.035 and the “size (nm)” value was 67.07 nm.
Taken in the same sequence, the figures for `CCCCCCCCC(CCCCCC)CC(=O)OCCCCCN(CCO)CCN(CCCCCN(C)C(=O)CC(CCCCCC)CCCCCCCC)C1CCCCCC1` (stereo not shown) [Compound 147] were 6.62, 88.17%, 0.058 and 85.76 nm.

The values above are taken from patent US20230348362A1, “LIPID COMPOUNDS AND LIPID NANOPARTICLE COMPOSITIONS” (Suzhou Abogen Biosciences Co., Ltd., priority 2021, published 2023).
